Key:
[1] = tested on: Coniophora puteana (brown rot); assay: EN113 decay test of wood composites; type: cell-based; settings: wood composite PF face/pMDI core; preservative loading 0.1% by weight; 12 weeks fungal decay exposure; eight samples
Method: Wood composite samples were made having a phenol-formaldehyde (PF) resin face and a diphenylmethanediisocyanate (pMDI) resin core. Some of the samples included a combination of the zinc borate, 2ZnO·3B2O3·3.5H2O, (ZB) and disodium octaborate tetrahydrate (DOT) and others contained ZB alone, while still others contained no wood preservative. The ZB/DOT combination formulations contained 60% ZB by weight and 40% DOT. The preservative compositions were added to the wood composite samples at a loading of 0.1% by weight of the wood composite. The samples were cut to 50 mm×25 mm×20 mm before testing. A total of eight samples from each treatment set were subjected to decay testing.
A total of eight samples from each treatment set were tested according to a standard European decay test protocol known as EN113. The samples were first sealed in plastic bags and gamma irradiated at a level of at a level of 2.0 Mrad using a ^60Co source to ensure sterilization prior to mono-culture decay testing.
Aqueous solutions of 2.0% malt and 2.0% agar were prepared and then autoclaved at 120° C. for 30 minutes. […]
The decay results are shown in Table 1, expressed as average percent weight loss of the wood composite samples after 12 weeks of fungal decay exposure.

mold [2] = assay: Mold exposure test on aspen OSB, modified ASTM D 3273-94 (Example 2); type: cell-based; settings: for Mold Formation Rating: 4 weeks; for Mold Formation Rating, Average: average over boards and soluble borates
Method: The effectiveness of the mixed solubility wood preservatives of this invention against mold growth was tested on samples of aspen oriented strand board (OSB). Two OSB formulations were evaluated. One type was bonded with pMDI resin at a 6% loading. The other type was bonded with a PF resin face and a pMDI resin core. The OSB samples contained either a mixed solubility borate preservative formulation or a low solubility borate alone, or no preservative in the case of the control samples. The low solubility borate in all cases was zinc borate 2:3:3.5. The two different high solubility borates were tested—disodium octaborate tetrahydrate (DOT) and boric oxide (B2O3), also known as anhydrous boric acid (ABA). The weight ratio of low solubility borate to high solubility borate in the mixed solubility samples was either 80/20 or 60/40. Two different target loadings of preservative in the OSB samples were tested—0.18% and 0.88% by weight.
(§1) Mold exposure testing was carried out using a modified version of the ASTM: D 3273-94 procedure. Exposure of the OSB samples to mold was done in an experimental chamber consisting of a 597 mm×311 mm×413 mm plastic container tilted on its side to give a 45° roof angle to prevent condensate dripping on the samples and filled with 2-3 inches of water. The water was heated to 32.5° C. (±1° C.), using a thermostatically controlled heating coil. A 292 mm×394 mm×133 mm plastic bowl was filled to within 3 inches from the top with a mixture of damp potting soil and unsterile soil collected from outdoors to provide an inoculum source for mold. The bowl was floated in the plastic container. The boards were placed on a plastic mesh above the inoculum source. The blocks were inverted at one week intervals. The test ran for a duration of 4 weeks.
After the four week mold exposure, the samples were examined visually and rated for mold formation on a scale of 0 to 4, with 0 representing no mold formation (i.e. complete control) and 4 representing complete coverage or overgrowth of the sample by mold. […] With regard to the ratio of high solubility borate to low solubility borate, the samples containing 40% soluble borate (i.e. 60% zinc borate) provided a significant improvement over the samples containing 0% soluble borate (i.e. 100% zinc borate), on average.

mold [3] = assay: Mold exposure test on aspen OSB with water repellant (Example 3); type: cell-based; settings: scale 0-4; for Mold Formation Rating: 4 weeks, OSB pMDI 6%
Method: as §1
Another set of mold tests similar to Example 2 was carried out. Test samples consisted of Aspen OSB bonded with pMDI resin at a 6% loading. The OSB samples were treated with a hydrophobic resin 1% EW-58S, manufactured by Borden, which served as a water repellant. The preservative treated OSB samples contained either zinc borate alone or a mixture of zinc borate and DOT, at a 60/40 weight ratio. Target loadings of preservative were 0.05, 0.10 and 0.20% by weight in the OSB samples . The OSB test samples were cut into 76 mm×102 mm panels for use in the mold testing. Mold exposure testing was carried out using essentially the same method described in Example 2, except that the water was heated to 30.5° C. (±1° C.). The relative humidity within the environmental chamber was monitored and maintained at .95 to 99% with an average temperature of 27 to 30° C.
After the four week mold exposure, the samples were examined visually and rated for mold growth on a scale of 0 to 4, as in Example 2.

[4] = tested on: Formosan subterranean termite (Coptotermes formosanus Shiraki); assay: Termite field test of aspen waferboards, Hilo; type: in vivo; settings: 0.88% preservative
Description: The performance of mixed solubility borate preservatives against termites was investigated in a study using aspen waferboards bonded with either 100% pMDI (in both face and core) or with Phenol Formaldehyde (PF) in the face and pMDI in the core. The boards were made with a target loading of 0.88% preservative utilizing the formulations (blends) described in Table 4. The borates were incorporated into the board by mixing the preservative formulations with the aspen wafers in a blender before addition of the adhesive and wax. Composite board specimens were exposed to the Formosan subterranean termite (Coptotermes formosanus Shiraki) at a field test site in Hilo, Hi. The specimens, along with untreated aspen ‘feeder’ stakes, are placed in a horizontal array on hollow core concrete blocks approximately 10 cm thick. In addition to surrounding the test specimens, the untreated feeder stakes are also driven into the ground in an effort to increase the termite pressure on the test specimens. The assembly is then covered with a wooden box to prevent direct contact with rain. This is a severe test format conducted using a very termite susceptible wood species (aspen).
After 3, 9 and 15 months exposure the boards were rated visually on a scale of 0 to 10 . A rating of 10 indicates the sample was in perfect condition, while a 0 rating means the sample was essentially destroyed. Each result consisted of an average rating from the inspection of 10 separate samples (10 replicates).

Substance: 2ZnO·3B2O3·3.5H2O [ZB only]
- Average % Wt. Loss [1]: 15.98%
- Mold Formation Rating (mold [2]; scale 0 (no mold) to 4 (complete coverage), target borate loading 0.18 % BAE, board pMDI-6%, measured at Edges): 2.00
- Mold Formation Rating (mold [2]; scale 0-4, target borate loading 0.18 % BAE, board PF-pMDI, measured at Edges): 2.00
- Mold Formation Rating (mold [2]; scale 0-4, target borate loading 0.18 % BAE, board PF-pMDI, measured at Faces): 1.25
- Mold Formation Rating (mold [2]; scale 0-4, target borate loading 0.18 % BAE, board pMDI-6%, measured at Faces): 0.75
- Mold Formation Rating (mold [2]; scale 0-4, target borate loading 0.88 % BAE, board PF-pMDI, measured at Edges): 1.50
- Mold Formation Rating (mold [2]; scale 0-4, target borate loading 0.88 % BAE, board PF-pMDI, measured at Faces): 0.75
- Mold Formation Rating (mold [2]; scale 0-4, target borate loading 0.88 % BAE, board pMDI-6%, measured at Edges): 0.75
- Mold Formation Rating (mold [2]; scale 0-4, target borate loading 0.88 % BAE, board pMDI-6%, measured at Faces): 0.00
- Mold Formation Rating, Average (mold [2]; scale 0-4, 0.18 % BAE, Edges): 2.00
- Mold Formation Rating, Average (mold [2]; scale 0-4, 0.18 % BAE, Faces): 1.00
- Mold Formation Rating, Average (mold [2]; scale 0-4, 0.88 % BAE, Edges): 1.13
- Mold Formation Rating, Average (mold [2]; scale 0-4, 0.88 % BAE, Faces): 0.38
- Mold Formation Rating (mold [3]; target borate loading 0.05 % BAE, Edges): 1.00
- Mold Formation Rating (mold [3]; target borate loading 0.05 % BAE, Faces): 1.00
- Mold Formation Rating (mold [3]; target borate loading 0.10 % BAE, Edges): 3.33
- Mold Formation Rating (mold [3]; target borate loading 0.10 % BAE, Faces): 2.67
- Mold Formation Rating (mold [3]; target borate loading 0.20 % BAE, Edges): 2.33
- Mold Formation Rating (mold [3]; target borate loading 0.20 % BAE, Faces): 1.00
- Mold Formation Rating, Average (mold [3]; average over loadings 0.05-0.20 % BAE, Faces and Edges): 1.89
- Termites Ratings ([4]; scale 0 (destroyed) to 10 (perfect), board pMDI, 3 mos. exposure, average of 10 replicates): 10
- Termites Ratings ([4]; scale 0-10, board PF/pMDI, 3 mos. exposure): 10
- Termites Ratings ([4]; scale 0-10, board PF/pMDI, 9 mos. exposure): 9.5
- Termites Ratings ([4]; scale 0-10, board PF/pMDI, 15 mos. exposure): 9.7
- Termites Ratings ([4]; scale 0-10, board pMDI, 9 mos. exposure): 9.8
- Termites Ratings ([4]; scale 0-10, board pMDI, 15 mos. exposure): 9.9
